BindingDB's records for doi:10.1016/j.bmcl.2018.02.046 (AstraZeneca, 2018)

Molecular target: Proprotein convertase subtilisin/kexin type 9 (Homo sapiens, UniProt Q8NBP7)
Assay: Inhibition of PCSK9 binding to LDLR in human HuH7 cells after 5 hrs by On-cell Western assay

Proprotein convertase subtilisin/kexin type 9, sequence (Q8NBP7 31-152 limits assumed): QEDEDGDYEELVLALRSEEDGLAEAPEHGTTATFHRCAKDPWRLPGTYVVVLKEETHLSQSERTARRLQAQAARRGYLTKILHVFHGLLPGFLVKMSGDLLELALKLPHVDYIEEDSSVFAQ
Proprotein convertase subtilisin/kexin type 9, sequence (Q8NBP7 153-692 limits assumed): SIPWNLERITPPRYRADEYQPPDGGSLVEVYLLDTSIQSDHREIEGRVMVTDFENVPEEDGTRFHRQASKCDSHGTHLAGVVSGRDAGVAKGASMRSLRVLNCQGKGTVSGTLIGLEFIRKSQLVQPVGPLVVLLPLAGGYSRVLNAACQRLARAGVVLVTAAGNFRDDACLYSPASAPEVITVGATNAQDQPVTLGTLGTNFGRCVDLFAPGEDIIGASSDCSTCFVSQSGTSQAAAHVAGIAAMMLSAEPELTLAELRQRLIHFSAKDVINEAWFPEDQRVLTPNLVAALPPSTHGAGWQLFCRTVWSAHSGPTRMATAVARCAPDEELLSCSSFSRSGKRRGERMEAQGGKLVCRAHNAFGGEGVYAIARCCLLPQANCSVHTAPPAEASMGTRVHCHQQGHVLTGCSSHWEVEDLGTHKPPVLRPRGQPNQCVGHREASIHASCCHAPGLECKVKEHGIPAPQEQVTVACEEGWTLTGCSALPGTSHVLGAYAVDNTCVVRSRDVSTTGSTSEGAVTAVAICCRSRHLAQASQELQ

- IC50: 1600 nM
Substance: H-LILPKHSDAD-OH
